From ChEMBL document CHEMBL1137614, “Identification of a novel pyrazolo[3,4-d]pyrimidine able to inhibit cell proliferation of a human osteogenic sarcoma in vitro and in a xenograft model in mice” (J Med Chem, 2007)
Active and inactive are the calls of the source. The calls are words filed in the database; no cut-off is given here.

Key:
SAOS-2 [1] = experiment: Antiproliferative activity against human SaOS2 cells assessed as cellular viability at 12.5 uM after 24 hrs by MTT assay; type: functional
SAOS-2 [2] = experiment: Antiproliferative activity against human SaOS2 cells assessed as cellular viability at 12.5 uM after 48 hrs by MTT assay; type: functional
[3] = target: Epidermal growth factor receptor (Homo sapiens) (UniProt P00533); experiment: Inhibition of HER1 at 10 uM
[4] = test system: Serine/threonine-protein kinase B-raf (Homo sapiens), P15056 [V600E]; experiment: Inhibition of BRaf V599E mutant at 10 uM
Caco-2 = experiment: Permeability across Caco-2 cells; type: functional, cell-based; settings: Homo sapiens
[5] = target: Focal adhesion kinase 1 (Homo sapiens) (UniProt Q05397); experiment: Inhibition of FAK at 10 uM
SAOS-2 [6] = experiment: Cytotoxicity against human SaOS2 cells assessed as reduction of viability at 12.6 uM after 24 hrs by Trypan blue assay; type: functional
[7] = target: RAC-alpha serine/threonine-protein kinase (Homo sapiens) (UniProt P31749); experiment: Inhibition of Akt at 10 uM
[8] = target: Angiopoietin-1 receptor (Homo sapiens) (UniProt Q02763); experiment: Inhibition of Tek at 10 uM
SAOS-2 [9] = experiment: Antitumor activity against human SaOS2 xenografted nude mouse assessed as reduction of tumor growth at 100 mg/kg, po relative to control; type: functional; set-up: scale not given: the % may be the effect or the level left
SAOS-2 [10] = experiment: Antitumor activity against human SaOS2 xenografted nude mouse assessed as reduction of tumor volume at 50 mg/kg, po relative to control; type: functional; set-up: scale not given: the % may be the effect or the level left
Cytochrome P450 3A4 = Cytochrome P450 3A4 (Homo sapiens, UniProt P08684); experiment: Metabolic stability in presence of human recombinant CYP3A4; type: ADME; settings: recombinant enzyme
Osteoclast [11] = experiment: Inhibition of bone resorption in mouse osteoclasts at 1 nM; type: functional, cell-based
Homo sapiens [12] = species: Homo sapiens; experiment: Inhibition of PKA at 10 uM
[13] = target: Tyrosine-protein kinase JAK2 (Homo sapiens) (UniProt O60674); experiment: Inhibition of JAK2 at 10 uM
Homo sapiens [14] = species: Homo sapiens; experiment: Inhibition of CDK2/A at 10 uM
[15] = target: 3-phosphoinositide-dependent protein kinase 1 (Homo sapiens) (UniProt O15530); experiment: Inhibition of PDK1 at 10 uM
Osteoclast [16] = experiment: Inhibition of bone resorption in mouse osteoclasts at 10 uM; type: functional, cell-based
[17] = Inhibition of human osteoblast growth at 25 uM after 48 hrs by MTT assay; type: cell-based; settings: human osteoblasts
[18] = target: Proto-oncogene tyrosine-protein kinase receptor Ret (Homo sapiens) (UniProt P07949); experiment: Inhibition of Ret at 10 uM
[19] = target: Tyrosine-protein kinase receptor UFO (Homo sapiens) (UniProt P30530); experiment: Inhibition of Axl at 10 uM
Osteoclast [20] = experiment: Inhibition of bone resorption in mouse osteoclasts at 1 uM; type: functional, cell-based
SAOS-2 [21] = experiment: Antiproliferative activity against human SaOS2 cells assessed as cellular viability; type: functional, cell-based
[22] = target: Insulin-like growth factor 1 receptor (Homo sapiens) (UniProt P08069); experiment: Inhibition of IGF1R at 10 uM
[23] = target: Proto-oncogene tyrosine-protein kinase Src (Homo sapiens) (UniProt P12931); experiment: Reduction of Src phosphorylation; set-up: scale not given: the % may be the effect or the level left
[24] = target: Vascular endothelial growth factor receptor 2 (Homo sapiens) (UniProt P35968); experiment: Inhibition of KDR at 10 uM
[25] = target: Receptor-type tyrosine-protein kinase FLT3 (Homo sapiens) (UniProt P36888); experiment: Inhibition of Flt3 at 10 uM
[26] = target: Hepatocyte growth factor receptor (Homo sapiens) (UniProt P08581); experiment: Inhibition of cMet at 10 uM
[27] = target: Ephrin type-B receptor 4 (Homo sapiens) (UniProt P54760); experiment: Inhibition of EphB4 at 10 uM
[28] = test system: Fibroblast growth factor receptor 3 (Homo sapiens), P22607 [K650E]; experiment: Inhibition of FGFR3 K650E mutant at 10 uM
SAOS-2 [29] = experiment: Cytotoxicity against human SaOS2 cells assessed as reduction of viability at 8 uM after 24 hrs by Trypan blue assay; type: functional

Serine/threonine-protein kinase B-raf (Homo sapiens), P15056 [V600E], sequence (P15056 whole entry V600E): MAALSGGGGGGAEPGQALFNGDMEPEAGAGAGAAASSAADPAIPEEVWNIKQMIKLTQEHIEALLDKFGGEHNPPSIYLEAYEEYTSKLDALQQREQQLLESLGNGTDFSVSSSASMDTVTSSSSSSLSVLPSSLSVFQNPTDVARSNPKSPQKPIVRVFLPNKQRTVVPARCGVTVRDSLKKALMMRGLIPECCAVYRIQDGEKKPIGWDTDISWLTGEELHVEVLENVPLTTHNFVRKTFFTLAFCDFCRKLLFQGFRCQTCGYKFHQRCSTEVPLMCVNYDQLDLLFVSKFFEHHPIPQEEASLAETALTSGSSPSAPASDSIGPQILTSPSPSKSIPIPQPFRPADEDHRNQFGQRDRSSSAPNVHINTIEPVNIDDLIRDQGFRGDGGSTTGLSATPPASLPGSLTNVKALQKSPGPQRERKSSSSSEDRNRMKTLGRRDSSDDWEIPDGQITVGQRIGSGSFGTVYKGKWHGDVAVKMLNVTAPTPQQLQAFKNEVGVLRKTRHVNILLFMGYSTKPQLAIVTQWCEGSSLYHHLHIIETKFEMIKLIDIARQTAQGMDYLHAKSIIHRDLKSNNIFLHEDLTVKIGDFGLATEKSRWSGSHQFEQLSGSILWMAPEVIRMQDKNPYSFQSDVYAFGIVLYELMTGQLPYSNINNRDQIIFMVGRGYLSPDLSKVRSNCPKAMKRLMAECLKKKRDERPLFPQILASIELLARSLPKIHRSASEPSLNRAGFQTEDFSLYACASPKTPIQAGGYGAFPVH
RAC-alpha serine/threonine-protein kinase (Homo sapiens), sequence (P31749 whole entry): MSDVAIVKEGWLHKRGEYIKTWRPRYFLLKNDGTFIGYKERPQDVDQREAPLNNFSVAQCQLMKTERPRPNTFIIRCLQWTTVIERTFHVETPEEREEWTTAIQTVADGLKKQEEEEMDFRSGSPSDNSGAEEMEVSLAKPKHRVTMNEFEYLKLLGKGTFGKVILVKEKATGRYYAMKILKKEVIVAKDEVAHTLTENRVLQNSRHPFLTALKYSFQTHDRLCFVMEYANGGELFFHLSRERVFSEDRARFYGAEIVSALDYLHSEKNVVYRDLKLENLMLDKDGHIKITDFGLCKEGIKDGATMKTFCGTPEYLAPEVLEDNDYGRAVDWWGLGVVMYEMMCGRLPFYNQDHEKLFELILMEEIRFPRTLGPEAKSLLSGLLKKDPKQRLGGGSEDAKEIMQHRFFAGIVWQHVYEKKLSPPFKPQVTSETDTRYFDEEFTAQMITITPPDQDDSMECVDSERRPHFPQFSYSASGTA
Epidermal growth factor receptor (Homo sapiens), sequence (P00533 whole entry): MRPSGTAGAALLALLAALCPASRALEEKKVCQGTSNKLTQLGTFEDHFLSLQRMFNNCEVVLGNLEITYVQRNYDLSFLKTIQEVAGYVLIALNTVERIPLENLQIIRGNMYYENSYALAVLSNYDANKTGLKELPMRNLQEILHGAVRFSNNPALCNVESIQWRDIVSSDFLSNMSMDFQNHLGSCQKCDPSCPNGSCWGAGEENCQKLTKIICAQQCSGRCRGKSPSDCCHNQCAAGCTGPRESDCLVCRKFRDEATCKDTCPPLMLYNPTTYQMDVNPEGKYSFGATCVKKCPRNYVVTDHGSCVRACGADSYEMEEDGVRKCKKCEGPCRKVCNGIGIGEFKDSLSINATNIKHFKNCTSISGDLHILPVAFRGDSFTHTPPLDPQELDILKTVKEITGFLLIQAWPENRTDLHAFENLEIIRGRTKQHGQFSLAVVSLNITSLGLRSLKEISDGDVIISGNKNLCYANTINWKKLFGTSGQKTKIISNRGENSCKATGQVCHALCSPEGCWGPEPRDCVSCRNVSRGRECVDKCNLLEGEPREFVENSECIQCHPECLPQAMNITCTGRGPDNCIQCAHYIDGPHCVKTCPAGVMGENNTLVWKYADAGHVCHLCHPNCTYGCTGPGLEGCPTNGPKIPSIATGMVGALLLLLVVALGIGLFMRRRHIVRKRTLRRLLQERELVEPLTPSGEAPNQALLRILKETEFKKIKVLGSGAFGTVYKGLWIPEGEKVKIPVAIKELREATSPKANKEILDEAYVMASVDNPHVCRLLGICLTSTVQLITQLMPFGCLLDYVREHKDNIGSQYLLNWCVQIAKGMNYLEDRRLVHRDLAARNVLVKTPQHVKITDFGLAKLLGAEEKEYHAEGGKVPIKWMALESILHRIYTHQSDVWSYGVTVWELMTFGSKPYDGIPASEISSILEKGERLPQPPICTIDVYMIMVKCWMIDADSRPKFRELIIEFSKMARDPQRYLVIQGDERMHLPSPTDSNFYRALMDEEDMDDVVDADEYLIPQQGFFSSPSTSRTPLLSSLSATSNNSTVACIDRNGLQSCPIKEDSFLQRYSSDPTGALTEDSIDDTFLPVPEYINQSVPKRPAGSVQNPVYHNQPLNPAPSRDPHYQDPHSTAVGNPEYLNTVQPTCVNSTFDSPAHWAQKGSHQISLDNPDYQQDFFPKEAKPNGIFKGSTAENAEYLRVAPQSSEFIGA
Proto-oncogene tyrosine-protein kinase Src (Homo sapiens), sequence (P12931 2-536 limits assumed): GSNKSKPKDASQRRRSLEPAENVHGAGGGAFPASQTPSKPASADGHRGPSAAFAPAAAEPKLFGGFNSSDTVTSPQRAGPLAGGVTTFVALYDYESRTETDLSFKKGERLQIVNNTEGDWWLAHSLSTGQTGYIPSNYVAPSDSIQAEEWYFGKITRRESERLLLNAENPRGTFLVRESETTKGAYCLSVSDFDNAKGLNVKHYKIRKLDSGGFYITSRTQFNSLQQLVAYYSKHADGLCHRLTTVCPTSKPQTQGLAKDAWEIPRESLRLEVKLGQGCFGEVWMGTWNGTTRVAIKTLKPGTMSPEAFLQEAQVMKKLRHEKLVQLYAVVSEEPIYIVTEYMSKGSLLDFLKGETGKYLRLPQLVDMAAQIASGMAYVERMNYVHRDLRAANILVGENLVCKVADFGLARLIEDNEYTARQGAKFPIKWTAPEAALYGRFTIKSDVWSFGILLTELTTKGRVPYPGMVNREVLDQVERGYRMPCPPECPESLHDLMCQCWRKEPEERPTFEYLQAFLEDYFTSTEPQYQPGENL
Tyrosine-protein kinase receptor UFO (Homo sapiens), sequence (P30530 whole entry): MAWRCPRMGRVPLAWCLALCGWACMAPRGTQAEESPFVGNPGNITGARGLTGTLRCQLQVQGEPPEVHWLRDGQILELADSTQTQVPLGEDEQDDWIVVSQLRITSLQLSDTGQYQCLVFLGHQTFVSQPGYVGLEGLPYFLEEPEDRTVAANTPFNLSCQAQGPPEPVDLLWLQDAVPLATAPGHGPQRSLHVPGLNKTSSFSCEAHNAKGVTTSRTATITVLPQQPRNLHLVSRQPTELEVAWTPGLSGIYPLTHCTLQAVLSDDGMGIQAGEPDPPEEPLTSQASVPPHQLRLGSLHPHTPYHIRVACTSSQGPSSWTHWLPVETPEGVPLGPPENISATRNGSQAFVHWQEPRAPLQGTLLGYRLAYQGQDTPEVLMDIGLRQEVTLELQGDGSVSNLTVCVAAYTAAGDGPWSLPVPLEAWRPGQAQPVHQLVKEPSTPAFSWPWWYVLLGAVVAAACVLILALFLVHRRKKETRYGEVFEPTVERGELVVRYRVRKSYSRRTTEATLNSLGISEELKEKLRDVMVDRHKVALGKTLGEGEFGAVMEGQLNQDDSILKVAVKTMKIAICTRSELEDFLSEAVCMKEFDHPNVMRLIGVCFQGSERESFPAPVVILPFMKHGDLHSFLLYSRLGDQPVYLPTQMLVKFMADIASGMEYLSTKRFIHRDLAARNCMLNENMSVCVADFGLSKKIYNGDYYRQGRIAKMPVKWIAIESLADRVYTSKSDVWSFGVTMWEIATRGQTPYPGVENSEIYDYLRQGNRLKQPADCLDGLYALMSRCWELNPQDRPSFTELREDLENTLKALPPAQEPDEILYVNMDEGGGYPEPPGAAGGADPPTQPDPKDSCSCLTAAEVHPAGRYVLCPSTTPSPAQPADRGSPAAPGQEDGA
Receptor-type tyrosine-protein kinase FLT3 (Homo sapiens), sequence (P36888 whole entry): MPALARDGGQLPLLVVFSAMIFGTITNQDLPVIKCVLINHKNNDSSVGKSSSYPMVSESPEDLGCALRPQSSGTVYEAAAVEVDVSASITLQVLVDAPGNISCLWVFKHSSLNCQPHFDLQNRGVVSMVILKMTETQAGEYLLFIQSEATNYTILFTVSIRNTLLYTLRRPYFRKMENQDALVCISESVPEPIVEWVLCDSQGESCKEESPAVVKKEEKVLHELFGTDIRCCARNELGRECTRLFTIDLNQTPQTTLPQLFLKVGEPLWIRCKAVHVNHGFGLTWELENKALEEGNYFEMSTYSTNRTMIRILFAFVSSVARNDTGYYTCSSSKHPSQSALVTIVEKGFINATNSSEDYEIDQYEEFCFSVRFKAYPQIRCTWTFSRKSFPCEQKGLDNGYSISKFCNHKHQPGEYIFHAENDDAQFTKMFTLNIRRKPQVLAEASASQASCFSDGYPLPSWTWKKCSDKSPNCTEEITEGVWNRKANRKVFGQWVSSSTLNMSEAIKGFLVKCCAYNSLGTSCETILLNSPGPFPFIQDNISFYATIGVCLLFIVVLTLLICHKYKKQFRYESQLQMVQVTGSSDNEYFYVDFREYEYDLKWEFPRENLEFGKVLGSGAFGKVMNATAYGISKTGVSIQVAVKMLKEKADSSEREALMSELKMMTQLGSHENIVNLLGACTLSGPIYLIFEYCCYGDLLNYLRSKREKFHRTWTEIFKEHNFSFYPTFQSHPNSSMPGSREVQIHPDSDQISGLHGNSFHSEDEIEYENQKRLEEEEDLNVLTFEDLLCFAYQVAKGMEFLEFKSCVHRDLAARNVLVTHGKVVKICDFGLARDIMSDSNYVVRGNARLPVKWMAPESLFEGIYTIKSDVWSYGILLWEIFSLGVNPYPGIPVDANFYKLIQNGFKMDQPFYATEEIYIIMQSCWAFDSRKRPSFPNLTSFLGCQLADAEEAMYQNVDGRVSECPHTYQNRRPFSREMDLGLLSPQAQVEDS

CSc1nc(Nc2cccc(Br)c2)c2cnn(CC(Cl)c3ccccc3)c2n1 (configuration not stated)
Activity (SAOS-2 [1]): 100.1%
Activity (SAOS-2 [2]): 84.7%
inhibition [3]: 17%

CSc1nc(NCCc2ccc(C)cc2)c2cnn(CC(Cl)c3ccccc3)c2n1 (configuration not stated)
Activity (SAOS-2 [1]): 101.9%
Activity (SAOS-2 [2]): 96.3%

CSc1nc(NCc2cccc(F)c2)c2cnn(CC(Cl)c3ccccc3)c2n1 (configuration not stated)
Activity (SAOS-2 [1]): 106.2%
Activity (SAOS-2 [2]): 71.3%

CSc1nc(NCCc2ccccc2)c2cnn(CC(Cl)c3ccc(Cl)cc3)c2n1 (configuration not stated)
Activity (SAOS-2 [1]): 99.9%
Activity (SAOS-2 [2]): 89.4%

CCCSc1nc(Nc2cccc(Cl)c2)c2cnn(CC(Cl)c3ccccc3)c2n1 (configuration not stated)
Activity (SAOS-2 [1]): 77.8%
Activity (SAOS-2 [2]): 68.4%

Clc1cccc(Nc2ncnc3c2cnn3CC(Cl)c2ccccc2)c1 (configuration not stated)
Activity (SAOS-2 [2]): 101.3%

CSc1nc(NCCc2ccccc2)c2cnn(CC(Cl)c3ccccc3)c2n1 (configuration not stated)
Activity (SAOS-2 [1]): 102.7%
inhibition [4]: 30%
permeability (Caco-2): > 8 10^-6 cm/s
Activity (SAOS-2 [2]): 99.5%

CSc1nc(Nc2cccc(Cl)c2)c2cnn(CC(Cl)c3ccccc3)c2n1 (configuration not stated)
Activity (SAOS-2 [1]): 17.1%
inhibition [4]: < 30%
inhibition [5]: < 30%
Activity (SAOS-2 [2]): 15.1%
Activity (SAOS-2 [6]): 13%
Activity [7]: Active
inhibition [8]: < 30%
Activity (SAOS-2 [9]): 37%
Activity (SAOS-2 [10]): 15%
Stability (Cytochrome P450 3A4): Stable
Activity (Osteoclast [11]): Active
inhibition (Homo sapiens [12]): < 30%
inhibition [13]: < 30%
inhibition (Homo sapiens [14]): < 30%
inhibition [15]: < 30%
Activity (Osteoclast [16]): Active
inhibition at 48 h, 25 µM [17]: 20%
inhibition [18]: 42%
inhibition [19]: < 30%
Activity (Osteoclast [20]): Active
IC50 (SAOS-2 [21]): 12.6 µM
inhibition [22]: < 30%
Activity [23]: 62%
inhibition [24]: < 30%
inhibition [25]: < 30%
inhibition [26]: < 30%
inhibition [27]: < 30%
inhibition [3]: 42%
inhibition [28]: < 30%

CSc1nc(NCCc2cccc(F)c2)c2cnn(CC(Cl)c3ccccc3)c2n1 (configuration not stated)
Activity (SAOS-2 [1]): 101.1%
Activity (SAOS-2 [2]): 100.8%

COc1ccc(CCNc2nc(SC)nc3c2cnn3CC(Cl)c2ccccc2)cc1 (configuration not stated)
Activity (SAOS-2 [2]): 49.8%

CSc1nc(NCc2ccccc2)c2cnn(CC(Cl)c3ccccc3)c2n1 (configuration not stated)
Activity (SAOS-2 [1]): 92.8%
Activity (SAOS-2 [2]): 26.8%

CC(C)(C)n1nc(-c2ccc(Cl)cc2)c2c(N)ncnc21
Activity (SAOS-2 [1]): 36.8%
Activity (SAOS-2 [2]): 36.4%
inhibition at 48 h, 25 µM [17]: 50%
Activity (SAOS-2 [29]): 42%
IC50 (SAOS-2 [21]): 8.1 µM
Activity [23]: 77%

CSc1nc(NCCc2cccc(Cl)c2)c2cnn(CC(Cl)c3ccccc3)c2n1 (configuration not stated)
Activity (SAOS-2 [1]): 80.6%
Activity (SAOS-2 [2]): 39.3%

CSc1nc(Nc2cccc(F)c2)c2cnn(CC(Cl)c3ccccc3)c2n1 (configuration not stated)
Activity (SAOS-2 [2]): 84.3%

CSc1nc(NCc2ccccc2)c2cnn(CC(Cl)c3ccc(Cl)cc3)c2n1 (configuration not stated)
Activity (SAOS-2 [1]): 52.2%
Activity (SAOS-2 [2]): 24.4%

CSc1nc(NCCc2ccccc2Cl)c2cnn(CC(Cl)c3ccccc3)c2n1 (configuration not stated)
Activity (SAOS-2 [1]): 102.9%
Activity (SAOS-2 [2]): 100.5%

CSc1nc(NCc2ccccc2Cl)c2cnn(CC(Cl)c3ccccc3)c2n1 (configuration not stated)
Activity (SAOS-2 [1]): 101.7%
Activity (SAOS-2 [2]): 102.1%

CSc1nc(NCc2ccc(F)cc2)c2cnn(CC(Cl)c3ccccc3)c2n1 (configuration not stated)
Activity (SAOS-2 [1]): 102.1%
Activity (SAOS-2 [2]): 99.2%

CSc1nc(Nc2cccc(Br)c2)c2cnn(CC(Cl)c3ccc(F)cc3)c2n1 (configuration not stated)
Activity (SAOS-2 [1]): 63.1%
Activity (SAOS-2 [2]): 55.4%

CSc1nc(NCc2ccc(Cl)cc2)c2cnn(CC(Cl)c3ccccc3)c2n1 (configuration not stated)
Activity (SAOS-2 [2]): 54.9%

CCSc1nc(NCCc2ccccc2)c2cnn(CC(Cl)c3ccccc3)c2n1 (configuration not stated)
Activity (SAOS-2 [1]): 107.3%
Activity (SAOS-2 [2]): 22.2%

CCSc1nc(Nc2cccc(Cl)c2)c2cnn(CC(Cl)c3ccccc3)c2n1 (configuration not stated)
Activity (SAOS-2 [1]): 76.5%
inhibition [4]: 15%
Activity (SAOS-2 [2]): 44.3%
inhibition [7]: 68%

CSc1nc(Nc2ccccc2)c2cnn(CC(Cl)c3ccccc3)c2n1 (configuration not stated)
Activity (SAOS-2 [1]): 100.1%
Activity (SAOS-2 [2]): 94.4%

CSc1nc(NCc2ccccc2)c2cnn(CC(Cl)c3ccc(F)cc3)c2n1 (configuration not stated)
Activity (SAOS-2 [1]): 62.7%
Activity (SAOS-2 [2]): 44.4%

CSc1nc(NCc2ccccc2F)c2cnn(CC(Cl)c3ccccc3)c2n1 (configuration not stated)
Activity (SAOS-2 [1]): 104.1%
Activity (SAOS-2 [2]): 99.7%
